Source: PMC10817097, “Caffeic Acid Phosphanium Derivatives: Potential Selective Antitumor, Antimicrobial and Antiprotozoal Agents” (International Journal of Molecular Sciences, 2024)
Values after ≈ are worked out from the molar mass of the structure shown.

Key:
[1] = tested on: MCF-10A cell line (human mammary gland epithelial cells); assay: MTS cell proliferation/viability assay, control cells; assay type: cell-based; settings: MCF-10A control cells, 72 h
Procedure: (§1) The human cancer cell line HCT116 (human colorectal adenocarcinoma), HeLa (human cervical adenocarcinoma), Jurkat (human leukemic T cell lymphoma), and MDA-MB-231 (human mammary gland adenocarcinoma, triple-negative) were cultured in RPMI 1640 medium (Biosera, Kansas City, MO, USA). MCF-7 (human breast adenocarcinoma), A2058 (human metastatic melanoma), PANC-1 (human pancreatic adenocarcinoma), and NIH 3T3 (murine fibroblasts) cell lines were maintained in a growth medium consisting of high glucose Dulbecco’s Modified Eagle Medium with sodium pyruvate (Biosera, Kansas City, MO, USA). MCF-10A cell line (human mammary gland epithelial cells) was maintained in a growth medium consisting of high glucose DMEM F12 Medium (Biosera, Kansas City, MO, USA) + Suppl. (insulin, EGF-[…], HC-hydrocortisone, choleratoxin all Sigma, Steinheim, Germany). The growth medium was supplemented with a 10% fetal bovine serum, penicillin (100 IU/mL), and streptomycin (100 μg/mL) (all Invitrogen, Carlsbad, CA, USA), and cells were maintained in an atmosphere containing 5% CO2 in humidified air at 37 °C. Cell viability, estimated by trypan exclusion, was greater than 95% before each experiment.
(§2) The metabolic activity colorimetric assay (MTS) was used to determine the effects of CA (c = 10–300 µM) and compounds CAP 6, CAP 8, CAP 10, and CAP 12 (c = 1–100 µM) on the metabolic activity of several cell lines. After 72 h of incubation, 10 µL of MTS (Promega, Madison, WI, USA) was added to each well according to the CellTiter 96® AQueous One Solution Cell Proliferation Assay protocol. After a minimum of 1 h incubation, the absorbance was measured at 490 nm using the automated Cytation^TM 3 Cell Imaging Multi-Mode Reader (Biotek, Winooski, VT, USA). The absorbance of the control wells was taken as 1.0 (100%), and the results were expressed as a fold of the control. All experiments were performed in triplicate. Ideal predictive IC50 values were calculated from MTS analyses-based concentration concentration-dependent trends.

[2] = tested on: NIH 3T3 (murine fibroblasts); assay: as above; assay type: cell-based; settings: Mus musculus, NIH3T3, NIH 3T3 control cells, 72 h
Procedure: as §1, §2

[3] = tested on: Enterococcus faecalis CCM 4224; assay: Broth microdilution MIC and MBC; assay type: cell-based; settings: for MIC: CCM4224, E. faecalis CCM 4224; for MBC: CCM4224, E. faecalis CCM 4224, inactivating 99.9% of inoculum
Procedure: (§3) The antimicrobial activity of caffeic acid and its semi-synthetic derivates was tested against Gram-positive (Staphylococcus aureus CCM 4750, methicillin-resistant; Staphylococcus aureus CCM 4223, methicillin-susceptible; Enterococcus faecalis CCM 4224) and Gram-negative bacteria (Pseudomonas aeruginosa CCM 3955; Escherichia coli CCM 3954; Klebsiella pneumoniae CCM 4415; Proteus mirabilis CCM 7188), and one strain of a yeast Candida albicans (CCM 8267). Microbial strains were purchased from the Czech Collection of Microorganisms, Brno, Czech Republic, and preserved in aliquots in cryoprotective media at −20 °C until the testing. Revival of cryoprotected bacteria took place by overnight cultivation on blood agar and an additional passage on blood agar. Minimal inhibitory concentrations (MIC) against bacteria were detected by broth microdilution test in sterile 96-well U-shaped microtiter plates (Roll s.a.s., Piove di Sacco, Italy) according to the EUCAST recommendations. The test was performed in 100 μL volumes in microtiter plate wells with a final bacterial concentration of 5 × 10^5 CFU·mL^−1. Antifungal activity testing was performed according to the EUCAST-recommended method for the determination of broth dilution minimum inhibitory concentrations of antifungal agents for yeasts, with some modifications. The final yeast concentration in the test wells was 10^4 CFU·mL^−1. The minimal bactericidal/fungicidal concentrations (MBC/MFC) were detected by point-inoculation of 5 μL aliquots from test wells without visible growth on solid agar media free of antimicrobials. Mueller–Hinton broth and agar were used for bacteria, and Sabouraud dextrose broth and agar for fungi (OXOID, Basingstoke, Hampshire, UK). The tested agents were dissolved in 50% ethanol, and serial dilutions were prepared in the test medium to obtain final concentrations ranging from 5000 to 5 μg·mL^−1, which corresponds to 27,753—54 μM for caffeic acid, 7251—14 μM for CAP 6, 6967—14 μM for CAP 8, 6705—13 μM for CAP 10 and 6462—13 μM for CAP 12. Wells with media free of bacteria served as sterility control and wells with bacteria without antimicrobial agents were used as growth control. The MIC was determined to be the lowest concentration of the antimicrobial agent inhibiting the growth of the tested microorganism, and the MBC/MFC was determined to be the lowest concentration, inactivating 99.9% of microbial inoculum. All tests were performed in three independent runs to exclude possible excessive values due to permissible measurement error.

[4] = tested on: Klebsiella pneumoniae CCM 4415; assay: Broth microdilution MIC and MBC; assay type: cell-based; settings: for MIC: CCM4415, K. pneumoniae CCM 4415; for MBC: CCM4415, K. pneumoniae CCM 4415, inactivating 99.9% of inoculum
Procedure: as §3

S. aureus (MS) CCM 4223 = assay: Broth microdilution MIC and MBC; assay type: cell-based; settings: Staphylococcus aureus, CCM4223, S. aureus methicillin-susceptible CCM 4223; for MBC: inactivating 99.9% of inoculum
Procedure: as §3

[5] = tested on: Candida albicans CCM 8267; assay: Broth dilution MIC and MFC for yeasts; assay type: cell-based; settings: for MIC: CCM8267, C. albicans CCM 8267; for MFC: CCM8267, C. albicans CCM 8267, inactivating 99.9% of inoculum
Procedure: as §3

[6] = Equilibrium surface tension measurements (Wilhelmy plate); assay type: physicochemical; settings: 25 °C; for cmc (critical micelle concentration) / γcmc (surface tension at the cmc): aqueous solution; for Acmc (surface area per head group at surface saturation): water/air interface, from Gibbs adsorption isotherm
Procedure: The physicochemical properties of the compounds were investigated by the measurements of surface tension of their aqueous solutions. The critical micelle concentration (cmc), the surface tension value at the cmc (γcmc), and the surface area per head group at the surface saturation (Acmc) were determined.
The equilibrium surface tension measurements were carried out according to the procedure described previously. The Wilhelmy plate technique was used for the determination of the solvent surface tension values. Measurements were performed with a Krüss 100 MK2 tensiometer. All samples were prepared by dissolving amphiphilic compounds in deionized water. The stock solutions were prepared in a volumetric flask. The measurements were performed at 25 ± 0.1 °C. The measurements of equilibrium surface tension were taken repeatedly. The values were recorded every 360 s. The measurement was stopped if the difference between the values of two successive measurements was less than 5 × 10^−5 N·m^−1. The breakpoint of the linear parts of the surface tension vs. log c curve was used for the determination of the critical micelle concentration (cmc) and surface tension at the cmc (γcmc). The adsorbed amount of surfactant Γcmc was also determined from surface tension data. The value was calculated using the Gibbs adsorption isotherm: Γcmc=dγ/dlogcT/2.303iRT where γ represents the surface tension (mN/m), c is the concentration of surfactant, i represents the prefactor (CAP have i = 2), R is the gas constant, and T represents the absolute temperature. The slope below the cmc in the surface tension vs. log c plots was used for the determination of the surface excess. The values of area per head group at the water/air interface (Acmc) were obtained from the following equation: Acmc=10^18/NAΓcmc where NA represents the Avogadros constant.

Row | SMILES | MIC [3] | MIC [4] | MIC (S. aureus (MS) CCM 4223) | MIC [5] | cmc (critical micelle concentration) [6] | γcmc (surface tension at the cmc) [6] | Acmc (surface area per head group at surface saturation) [6] | IC50 [1] | IC50 [2] | MBC [3] | MBC [4] | MBC (S. aureus (MS) CCM 4223) | MFC [5]
1 | O=C(O)C=Cc1ccc(O)c(O)c1 [CA, 3-(3,4-dihydroxyphenyl)-2-propenoic acid, reference compound] | 13900 µM (≈ 2500 µg/mL) | 6940 µM (≈ 1250 µg/mL) | 6940 µM (≈ 1250 µg/mL) | 13900 µM (≈ 2500 µg/mL) |  |  |  | > 300 µM | > 300 µM | 27800 µM (≈ 5000 µg/mL) | 6940 µM (≈ 1250 µg/mL) | 13900 µM (≈ 2500 µg/mL) | 13900 µM (≈ 2500 µg/mL)
2 | CC(=O)Oc1ccc(/C=C/C(=O)OCCCCCC[P+](c2ccccc2)(c2ccccc2)c2ccccc2)cc1OC(C)=O [CAP 6, P,P,P-triphenyl-6-{(2E)-3-[3,4-(diacetyloxy)penyl]prop-2-enoyloxy}hexane-1-phosphanium bromide] | 57 µM | 28 µM | 14 µM | 57 µM | 7.5 × 10^−3 mol·dm^−3 | 36.4 mN·m^−1 | 0.84 nm^2 | 53.7 ± 0.2 µM | 44.4 ± 2.6 µM | 57 µM | 28 µM | 14 µM | 57 µM
3 | CC(=O)Oc1ccc(/C=C/C(=O)OCCCCCCCC[P+](c2ccccc2)(c2ccccc2)c2ccccc2)cc1OC(C)=O [CAP 8, P,P,P-triphenyl-8-{(2E)-3-[3,4-(diacetyloxy)penyl]prop-2-enoyloxy}okctane-1-phosphanium bromide] | 27 µM | 27 µM | 14 µM | 27 µM | 5.2 × 10^−3 mol·dm^−3 | 37.7 mN·m^−1 | 0.82 nm^2 | 42.3 ± 1.1 µM | 38.2 ± 1.8 µM | 27 µM | 27 µM | 14 µM | 27 µM

Continued, in another order:

Row | MIC [3] | MIC [4] | MIC (S. aureus (MS) CCM 4223) | MIC [5] | cmc (critical micelle concentration) [6] | γcmc (surface tension at the cmc) [6] | Acmc (surface area per head group at surface saturation) [6] | SMILES | IC50 [1] | IC50 [2] | MBC [3] | MBC [4] | MBC (S. aureus (MS) CCM 4223) | MFC [5]
4 | 26 µM | 105 µM | 13 µM | 13 µM | 2.2 × 10^−3 mol·dm^−3 | 37.1 mN·m^−1 | 1.02 nm^2 | CC(=O)Oc1ccc(/C=C/C(=O)OCCCCCCCCCC[P+](c2ccccc2)(c2ccccc2)c2ccccc2)cc1OC(C)=O [CAP 10, P,P,P-triphenyl-10-{(2E)-3-[3,4-(diacetyloxy)penyl]prop-2-enoyloxy}decane-1-phosphanium bromide] | 31.1 ± 2.3 µM | 28 ± 1.3 µM | 26 µM | 105 µM | 13 µM | 13 µM
5 | 25 µM | 404 µM | 50 µM | 25 µM | 1.0 × 10^−3 mol·dm^−3 | 39.4 mN·m^−1 | 1.33 nm^2 | CC(=O)Oc1ccc(/C=C/C(=O)OCCCCCCCCCCCC[P+](c2ccccc2)(c2ccccc2)c2ccccc2)cc1OC(C)=O [CAP 12, P,P,P-triphenyl-12-{(2E)-3-[3,4-(diacetyloxy)penyl]prop-2-enoyloxy}dodecane-1-phosphanium bromide] | 33.7 ± 1.5 µM | 32.5 ± 0.9 µM | 25 µM | 404 µM | 50 µM | 25 µM
